From US20210178009A1, “WOUND CARE PRODUCTS COMPRISING ALEXIDINE” (TELEFLEX MEDICAL INCORPORATED, priority 2015, published 2021)

Experiments:
Assay in all cases: Time to kill comparison
Type in all cases: cell-based
Candida albicans = settings: 128 ppm; for exposure time to complete kill: C. albicans, challenge 10^4-10^5 CFU/mL; for Number of Microbial Colonies: Candida albicans, 5 replicates, TNTC = too numerous to count
Procedure: (§1) Alexidine and Chlorhexidine, both at a concentration of 128 ppm were exposed to a Gram positive bacteria (Staphylococcus aureus), a Gram negative bacteria (Pseudomonas aeruginosa), and a fungus (Candida albicans). The challenge concentration for each organism was 10^4-10^5 CFU/mL, and the exposure time varied from 0.5-60 minutes. […] Complete kill of all three organisms was observed within 0.5-1 minute of Alexidine exposure.

Pseudomonas aeruginosa = settings: P. aeruginosa, 128 ppm, challenge 10^4-10^5 CFU/mL
Procedure: as §1

Staphylococcus aureus = settings: 128 ppm; for exposure time to complete kill: S. aureus, challenge 10^4-10^5 CFU/mL; for Number of Microbial Colonies: Staphylococcus aureus, 5 replicates, TNTC = too numerous to count
Procedure: as §1

CCCCC(CC)CNC(=N)NC(=N)NCCCCCCNC(=N)NC(=N)NCC(CC)CCCC (stereo not drawn) [Alexidine]
0.5 to 1 min: exposure time to complete kill (Candida albicans) | exposure time to complete kill (Pseudomonas aeruginosa) | exposure time to complete kill (Staphylococcus aureus)

[H]/N=C(\N/C(=N/[H])NCCCCCCNC(=N)NC(=N)Nc1ccc(Cl)cc1)Nc1ccc(Cl)cc1 [Chlorhexidine]
60 min: exposure time to complete kill (Candida albicans) | exposure time to complete kill (Staphylococcus aureus)
TNTC: Number of Microbial Colonies (Candida albicans; exposure 0.5 minutes) | Number of Microbial Colonies (Candida albicans; exposure 1 minute) | Number of Microbial Colonies (Candida albicans; exposure 5 minutes) | Number of Microbial Colonies (Staphylococcus aureus; exposure 0.5 minutes) | Number of Microbial Colonies (Staphylococcus aureus; exposure 1 minute) | Number of Microbial Colonies (Staphylococcus aureus; exposure 5 minutes)
5 min: exposure time to complete kill (Pseudomonas aeruginosa)
